The values below come from the supplement of paper PMC10307832.

Holding throughout (experiment): relative viability (nuclei count vs DMSO), 5 days (fraction); higher = more cells survive
Compound in assay [1]: CN(C)CC1=CC(=CC=C1)N=C(C2=CC=CC=C2)C3=C(NC4=C3C=CC(=C4)C(=O)N(C)C)O + CCNC(=O)c1noc(-c2cc(C(C)C)c(O)cc2O)c1-c1ccc(CN2CCOCC2)cc1 [Luminespib] (partner 0.01 µM)
In a few lines: (§1)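 Lung cancer cell lines in 1536-well plates got either a single drug or a fixed anchor-drug dose together with five library-drug doses (not always all listed) in √10 steps, by pin tool, on the day after seeding. Nuclei were counted after 5 days, and relative viability is the treated-to-vehicle ratio of nuclei counts. Values are medians of duplicate plates.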

Compound in assay [2]: CN(C)CC1=CC(=CC=C1)N=C(C2=CC=CC=C2)C3=C(NC4=C3C=CC(=C4)C(=O)N(C)C)O + Nc1ncn([C@H]2C[C@H](O)[C@@H](CO)O2)c(=O)n1 [Decitabine] (partner 2 µM)
Put shortly: as §1

Compound in assay [3]: CN(C)CC1=CC(=CC=C1)N=C(C2=CC=CC=C2)C3=C(NC4=C3C=CC(=C4)C(=O)N(C)C)O + Cc1nc(Nc2ncc(C(=O)Nc3c(C)cccc3Cl)s2)cc(N2CCN(CCO)CC2)n1 [Dasatinib] (partner 0.075 µM)
Put shortly:
as §1

Compound in assay [4]: CN(C)CC1=CC(=CC=C1)N=C(C2=CC=CC=C2)C3=C(NC4=C3C=CC(=C4)C(=O)N(C)C)O + COc1cc2c(Oc3ccc(NC(=O)C4(C(=O)Nc5ccc(F)cc5)CC4)cc3F)ccnc2cc1OCCCN1CCOCC1 [Foretinib] (partner 0.25 µM)
Put shortly:
as §1

For NCI-H3122, the relative viability in assay [1] (first compound 0.08 µM) is 0.0882; in assay [1] (first compound 0.253 µM), 0.0788; in assay [1] (first compound 0.8 µM), 0.075; in assay [1] (first compound 2.53 µM), 0.142; in assay [1] (first compound 8 µM), 0.0907; in assay [2] (first compound 0.08 µM), 0.508. In addition, the relative viability is 0.387 in assay [2] (first compound 0.253 µM); 0.454 in assay [2] (first compound 0.8 µM); 0.504 in assay [2] (first compound 2.53 µM); 0.46 in assay [2] (first compound 8 µM); 0.686 in assay [3] (first compound 0.08 µM); 0.867 in assay [3] (first compound 0.253 µM). Further, the relative viability in assay [3] (first compound 0.8 µM) stood at 0.846; in assay [3] (first compound 2.53 µM) it was 0.844; in assay [3] (first compound 8 µM), 0.951; in assay [4] (first compound 0.08 µM), 0.995; in assay [4] (first compound 0.253 µM) it was 0.983; in assay [4] (first compound 0.8 µM), 1.01. Besides, the relative viability in assay [4] (first compound 2.53 µM) is 1.02; in assay [4] (first compound 8 µM) it was 0.966.
As to PC-3 [JPC-3], the relative viability was 0.705 in assay [1] (first compound 0.08 µM); 0.69 in assay [1] (first compound 0.253 µM); 0.707 in assay [1] (first compound 0.8 µM); 0.751 in assay [1] (first compound 2.53 µM); 0.695 in assay [1] (first compound 8 µM); 0.761 in assay [2] (first compound 0.08 µM). The relative viability in assay [2] (first compound 0.253 µM) was found to be 0.763; in assay [2] (first compound 0.8 µM), 0.804; in assay [2] (first compound 2.53 µM), 0.837; in assay [2] (first compound 8 µM), 0.842; in assay [3] (first compound 0.08 µM) it was 1.01; in assay [3] (first compound 0.253 µM), 1.03. Further, the relative viability in assay [3] (first compound 0.8 µM) was determined as 0.911; in assay [3] (first compound 2.53 µM), 0.914; in assay [3] (first compound 8 µM), 0.992; in assay [4] (first compound 0.08 µM), 1.06; in assay [4] (first compound 0.253 µM), 1.09; in assay [4] (first compound 0.8 µM), 0.916. Also, the relative viability amounted to 1.03 in assay [4] (first compound 2.53 µM) and 1.06 in assay [4] (first compound 8 µM).
With PC-14, the relative viability in assay [1] (first compound 0.08 µM) is 0.206; in assay [1] (first compound 0.253 µM), 0.131; in assay [1] (first compound 0.8 µM), 0.146; in assay [1] (first compound 2.53 µM), 0.145; in assay [1] (first compound 8 µM), 0.102; in assay [2] (first compound 0.08 µM), 0.254. Besides, the relative viability in assay [2] (first compound 0.253 µM) was determined as 0.214; in assay [2] (first compound 0.8 µM) it was 0.213; in assay [2] (first compound 2.53 µM), 0.236; in assay [2] (first compound 8 µM), 0.25; in assay [3] (first compound 0.08 µM) it was 0.289; in assay [3] (first compound 0.253 µM) it was 0.273. Also, the relative viability in assay [3] (first compound 0.8 µM) was determined as 0.324; in assay [3] (first compound 2.53 µM), 0.247; in assay [3] (first compound 8 µM), 0.197; in assay [4] (first compound 0.08 µM), 0.9; in assay [4] (first compound 0.253 µM) it was 0.903; in assay [4] (first compound 0.8 µM) it was 1.02. Moreover, the relative viability in assay [4] (first compound 2.53 µM) amounted to 0.934; in assay [4] (first compound 8 µM) it was 0.951.
For the cell line RERF-LC-KJ, the relative viability in assay [1] (first compound 0.08 µM) turned out to be 1.34; in assay [1] (first compound 0.253 µM), 1.4; in assay [1] (first compound 0.8 µM), 1.25; in assay [1] (first compound 2.53 µM), 1.13; in assay [1] (first compound 8 µM), 1.23; in assay [2] (first compound 0.08 µM), 0.746. Also, the relative viability stood at 0.644 in assay [2] (first compound 0.253 µM); 0.801 in assay [2] (first compound 0.8 µM); 0.671 in assay [2] (first compound 2.53 µM); 0.713 in assay [2] (first compound 8 µM); 0.931 in assay [3] (first compound 0.08 µM); 0.831 in assay [3] (first compound 0.253 µM). Further, the relative viability in assay [3] (first compound 0.8 µM) came to 0.876; in assay [3] (first compound 2.53 µM), 0.749; in assay [3] (first compound 8 µM) it was 0.793; in assay [4] (first compound 0.08 µM), 0.865; in assay [4] (first compound 0.253 µM) it was 0.894; in assay [4] (first compound 0.8 µM), 0.873. Besides, the relative viability amounted to 0.833 in assay [4] (first compound 2.53 µM) and 0.907 in assay [4] (first compound 8 µM).
